Measured values taken from patent publication US20230136297A1, “Methods Of Treating Fabry Disease In Patients Having A Mutation In The GLA Gene” (Amicus Therapeutics, Inc., priority 2020, published 2023).
Changes are numbered by the printed parent chain.

What was measured:
Assay in all cases: α-Gal A activity in lysates of transfected HEK-293 cells ± migalastat (HEK assay)
Type in all cases: cell-based
[1] = biological target: T1, α-Gal A mutant form Y88C (Homo sapiens, UniProt P06280, Y88C)
T1 construct: expressed in transfected cells; host or cells: HEK-293
T1 sequence (P06280 32-429 Y88C): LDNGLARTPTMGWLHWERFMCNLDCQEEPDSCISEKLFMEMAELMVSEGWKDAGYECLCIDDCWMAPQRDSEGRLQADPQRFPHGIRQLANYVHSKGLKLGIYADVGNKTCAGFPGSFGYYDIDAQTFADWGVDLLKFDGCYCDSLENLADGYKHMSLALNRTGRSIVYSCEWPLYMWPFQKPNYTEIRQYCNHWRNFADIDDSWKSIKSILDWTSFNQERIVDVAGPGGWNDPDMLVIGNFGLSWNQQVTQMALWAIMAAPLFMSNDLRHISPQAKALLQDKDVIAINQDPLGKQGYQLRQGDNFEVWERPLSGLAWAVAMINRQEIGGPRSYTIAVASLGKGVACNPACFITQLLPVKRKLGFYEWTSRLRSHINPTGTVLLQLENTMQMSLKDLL
Outline: (§1)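 Activity is reported as nmol of free 4-MU released per mg protein per hour (nmol/mg/hr).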

[2] = biological target: T2, α-Gal A mutant form R196T (Homo sapiens, UniProt P06280, R196T)
T2 construct: expressed in transfected cells; host or cells: HEK-293
T2 sequence (P06280 32-429 R196T): T1 sequence (P06280 32-429 Y88C) with C57Y, R165T
Outline: as §1

[3] = biological target: T3, α-Gal A mutant form G360R (Homo sapiens, UniProt P06280, G360R)
T3 construct: expressed in transfected cells; host or cells: HEK-293
T3 sequence (P06280 32-429 G360R): T1 sequence (P06280 32-429 Y88C) with C57Y, G329R
Outline: as §1

[4] = biological target: T4, α-Gal A mutant form A257T (Homo sapiens, UniProt P06280, A257T)
T4 construct: expressed in transfected cells; host or cells: HEK-293
T4 sequence (P06280 32-429 A257T): T1 sequence (P06280 32-429 Y88C) with C57Y, A226T
Outline: as §1

[5] = biological target: T5, α-Gal A mutant form L180V (Homo sapiens, UniProt P06280, L180V)
T5 construct: expressed in transfected cells; host or cells: HEK-293
T5 sequence (P06280 32-429 L180V): T1 sequence (P06280 32-429 Y88C) with C57Y, L149V
Outline: as §1

[6] = 10 μM migalastat minus baseline
[7] = HEK-293 lysates, 10 μM migalastat 5 days, mean ± SEM

**Q.** For `OC[C@H]1NC[C@H](O)[C@@H](O)[C@H]1O` [migalastat, (2R,3S,4R,5S)-2-(hydroxymethyl) piperdine-3,4,5-triol], which “Absolute increase (% WT)” value [1, 6] is on record?
**A.** Its value is 9.9 % WT.

**Q.** What about the Relative increase ([1]; 10 μM migalastat ÷ baseline) of the same compound?
**A.** The Relative increase was 3.38.

**Q.** And the “10 μM migalastat α-Gal A activity” value [1, 7]?
**A.** The value was 5459 ± 307 nmol/mg/h.

**Q.** What about the “10 μM migalastat α-Gal A activity (% WT)” value [1, 7] of the same compound?
**A.** The value was 14 ± 1.1 % WT.

**Q.** And the “Absolute increase (% WT)” value [2, 6]?
**A.** The value was 22.4 % WT.

**Q.** What about the Relative increase ([2]; 10 μM migalastat ÷ baseline) of the same compound?
**A.** Its Relative increase is 1.48.

**Q.** What about the “10 μM migalastat α-Gal A activity” value [2, 7] of the same compound?
**A.** Its value is 26217 ± 1611 nmol/mg/h.

**Q.** And the “10 μM migalastat α-Gal A activity (% WT)” value [2, 7]?
**A.** Its value is 69.5 ± 2.6 % WT.

**Q.** What about the “Absolute increase (% WT)” value [3, 6] of the same compound?
**A.** Its value is 3 % WT.

**Q.** What about the Relative increase ([3]; 10 μM migalastat ÷ baseline) of the same compound?
**A.** Its Relative increase is 3.65.

**Q.** What about the “10 μM migalastat α-Gal A activity” value [3, 7] of the same compound?
**A.** The value was 1418 ± 93 nmol/mg/h.

**Q.** What about the “10 μM migalastat α-Gal A activity (% WT)” value [3, 7] of the same compound?
**A.** The value was 4.0 ± 0.3 % WT.

**Q.** And the “Absolute increase (% WT)” value [4, 6]?
**A.** The value was 40.6 % WT.

**Q.** What about the Relative increase ([4]; 10 μM migalastat ÷ baseline) of the same compound?
**A.** The Relative increase was 2.56.

**Q.** And the “10 μM migalastat α-Gal A activity” value [4, 7]?
**A.** Its value is 18990 ± 1196 nmol/mg/h.

**Q.** And the “10 μM migalastat α-Gal A activity (% WT)” value [4, 7]?
**A.** Its value is 66.2 ± 4.1 % WT.

**Q.** What about the “Absolute increase (% WT)” value [5, 6] of the same compound?
**A.** Its value is 36.2 % WT.

**Q.** And the Relative increase ([5]; 10 μM migalastat ÷ baseline)?
**A.** The Relative increase was 1.97.

**Q.** What about the “10 μM migalastat α-Gal A activity” value [5, 7] of the same compound?
**A.** The value was 25437 ± 1279 nmol/mg/h.

**Q.** And the “10 μM migalastat α-Gal A activity (% WT)” value [5, 7]?
**A.** Its value is 73.4 ± 2.9 % WT.
